Reference: ChEMBL document CHEMBL5058564, “EUbOPEN Chemogenomics Library 2 (Incucyte)” (2022)

Assays:
Type in all cases: toxicity, cell-based
[1] = test system: Fibroblast; assay: Incucyte cell viability with human fibroblast; conditions: 10 µM, compound concentration 10 uM
[2] = test system: HEK-293T; assay: Incucyte cell viability with HEK293T; conditions: human, 10 µM, compound concentration 10 uM
[3] = test system: U2OS; assay: Incucyte cell viability with U2OS; conditions: human, 10 µM, compound concentration 10 uM
[4] = 6 h, replicate number 1, timepoint 6 hours
[5] = 12 h, replicate number 1, timepoint 12 hours
[6] = 12 h, replicate number 2, timepoint 12 hours
[7] = 18 h, replicate number 1, timepoint 18 hours
[8] = 18 h, replicate number 2, timepoint 18 hours
[9] = 24 h, replicate number 1, timepoint 24 hours
[10] = 24 h, replicate number 2, timepoint 24 hours
[11] = 0 h, replicate number 1, timepoint 0 hours
[12] = 6 h, replicate number 2, timepoint 6 hours
[13] = 0 h, replicate number 2, timepoint 0 hours
Further: unitless GR value; below 1 slowed growth and below 0 cell loss.

**Q.** `O=S(=O)(c1ccccc1)N(CC(F)(F)F)c1ccc(C(O)(C(F)(F)F)C(F)(F)F)cc1` [T091317] was tested. Which “Growth Rate” value [1, 4] did it give?
**A.** 0.72

**Q.** And the “Growth Rate” value [1, 5]?
**A.** -0.09

**Q.** What about the “Growth Rate” value [1, 6] of the same molecule?
**A.** 0.22

**Q.** What about the “Growth Rate” value [1, 7] of the same molecule?
**A.** -0.3

**Q.** And the “Growth Rate” value [1, 8]?
**A.** 0.05

**Q.** What about the “Growth Rate” value [1, 9] of the same molecule?
**A.** -0.32

**Q.** And the “Growth Rate” value [1, 10]?
**A.** 0.05

**Q.** What about the “Growth Rate” value [2, 11] of the same molecule?
**A.** 0.85

**Q.** What about the “Growth Rate” value [2, 4] of the same molecule?
**A.** 0.85

**Q.** What about the “Growth Rate” value [2, 12] of the same molecule?
**A.** 0.77

**Q.** And the “Growth Rate” value [2, 5]?
**A.** 0.42

**Q.** And the “Growth Rate” value [2, 6]?
**A.** 0.75

**Q.** And the “Growth Rate” value [2, 7]?
**A.** 0.24

**Q.** And the “Growth Rate” value [2, 8]?
**A.** 0.56

**Q.** And the “Growth Rate” value [2, 9]?
**A.** 0.37

**Q.** What about the “Growth Rate” value [2, 10] of the same molecule?
**A.** 0.53

**Q.** What about the “Growth Rate” value [3, 11] of the same molecule?
**A.** 0.14

**Q.** And the “Growth Rate” value [3, 13]?
**A.** -0.29

**Q.** And the “Growth Rate” value [3, 4]?
**A.** 0.74

**Q.** What about the “Growth Rate” value [3, 6] of the same molecule?
**A.** 0.83

**Q.** What about the “Growth Rate” value [3, 7] of the same molecule?
**A.** 0.98

**Q.** What about the “Growth Rate” value [3, 8] of the same molecule?
**A.** 0.76

**Q.** What about the “Growth Rate” value [3, 10] of the same molecule?
**A.** 0.81

**Q.** Which results are given for `CCNC(=O)[C@H]1O[C@@H](n2cnc3c(N)ncnc32)[C@H](O)[C@@H]1O.O`?
**A.** Growth Rate [1, 11]: -0.1; Growth Rate [1, 13]: 0.3; Growth Rate [1, 12]: 0.46; Growth Rate [1, 6]: 0.87; Growth Rate [2, 11]: -0.1; Growth Rate [2, 13]: -0.27; Growth Rate [2, 4]: 0.74; Growth Rate [2, 5]: 0.85; Growth Rate [2, 7]: 0.8; Growth Rate [2, 9]: 0.76; Growth Rate [2, 10]: 0.81; Growth Rate [3, 11]: -0.43; Growth Rate [3, 4]: 0.86; Growth Rate [3, 5]: 0.61; Growth Rate [3, 7]: 0.71; Growth Rate [3, 9]: 0.74

**Q.** Which results are given for `Cn1cnc(-c2cc3nccc(Oc4ccc(NC(=S)NC(=O)Cc5ccccc5)cc4F)c3s2)c1`?
**A.** Growth Rate [1, 13]: 0.94; Growth Rate [1, 4]: 0.43; Growth Rate [1, 12]: -0.42; Growth Rate [1, 5]: -0.11; Growth Rate [1, 6]: 0.3; Growth Rate [1, 7]: 0.43; Growth Rate [1, 8]: 0.77; Growth Rate [1, 9]: 0.31; Growth Rate [2, 4]: -0.37; Growth Rate [2, 12]: -0.26; Growth Rate [2, 5]: -0.02; Growth Rate [2, 6]: 0.34; Growth Rate [2, 7]: 0.28; Growth Rate [2, 8]: 0.64; Growth Rate [2, 9]: 0.6; Growth Rate [2, 10]: 0.99; Growth Rate [3, 11]: -0.11; Growth Rate [3, 13]: -0.99; Growth Rate [3, 6]: 0.95; Growth Rate [3, 8]: 0.93; Growth Rate [3, 10]: 0.98

**Q.** How did the “Growth Rate” value [1, 11] turn out when `COc1ncc2cc(C(=O)Nc3cc(C(=O)NCc4cccc(Cl)c4)ccc3Cl)c(=O)[nH]c2n1` was run?
**A.** 0.34

**Q.** And the “Growth Rate” value [1, 13]?
**A.** 0.82

**Q.** And the “Growth Rate” value [1, 4]?
**A.** -0.08

**Q.** What about the “Growth Rate” value [1, 12] of the same molecule?
**A.** -0.3

**Q.** And the “Growth Rate” value [1, 5]?
**A.** 0.48

**Q.** And the “Growth Rate” value [1, 6]?
**A.** 0.41

**Q.** And the “Growth Rate” value [1, 7]?
**A.** 0.51

**Q.** What about the “Growth Rate” value [1, 9] of the same molecule?
**A.** 0.76

**Q.** What about the “Growth Rate” value [2, 4] of the same molecule?
**A.** 0.48

**Q.** What about the “Growth Rate” value [2, 12] of the same molecule?
**A.** 0.93

**Q.** And the “Growth Rate” value [2, 5]?
**A.** 0.55

**Q.** What about the “Growth Rate” value [2, 6] of the same molecule?
**A.** 0.83

**Q.** What about the “Growth Rate” value [2, 7] of the same molecule?
**A.** 0.64

**Q.** And the “Growth Rate” value [2, 8]?
**A.** 0.9

**Q.** And the “Growth Rate” value [2, 9]?
**A.** 0.66

**Q.** And the “Growth Rate” value [2, 10]?
**A.** 0.93

**Q.** What about the “Growth Rate” value [3, 4] of the same molecule?
**A.** 0.36

**Q.** And the “Growth Rate” value [3, 12]?
**A.** 0.28

**Q.** And the “Growth Rate” value [3, 6]?
**A.** 0.69

**Q.** And the “Growth Rate” value [3, 7]?
**A.** 0.51

**Q.** What about the “Growth Rate” value [3, 8] of the same molecule?
**A.** 0.67

**Q.** And the “Growth Rate” value [3, 9]?
**A.** 0.75

**Q.** And the “Growth Rate” value [3, 10]?
**A.** 0.69

**Q.** With `C(#Cc1cccc(CN2CCOCC2)c1)CCN1CCCCC1` as the molecule, how does the “Growth Rate” value [1, 4] read?
**A.** 0.03

**Q.** And the “Growth Rate” value [1, 12]?
**A.** 0.09

**Q.** What about the “Growth Rate” value [1, 5] of the same molecule?
**A.** 0.14

**Q.** What about the “Growth Rate” value [1, 6] of the same molecule?
**A.** 0.09

**Q.** And the “Growth Rate” value [1, 7]?
**A.** 0.39

**Q.** What about the “Growth Rate” value [1, 8] of the same molecule?
**A.** 0.23

**Q.** And the “Growth Rate” value [1, 9]?
**A.** 0.28

**Q.** What about the “Growth Rate” value [1, 10] of the same molecule?
**A.** 0.26

**Q.** What about the “Growth Rate” value [2, 11] of the same molecule?
**A.** 0.61

**Q.** What about the “Growth Rate” value [2, 13] of the same molecule?
**A.** 0.63

**Q.** What about the “Growth Rate” value [2, 5] of the same molecule?
**A.** 0.91

**Q.** And the “Growth Rate” value [2, 7]?
**A.** 0.78

**Q.** What about the “Growth Rate” value [2, 9] of the same molecule?
**A.** 0.73

**Q.** What about the “Growth Rate” value [3, 11] of the same molecule?
**A.** 0.35

**Q.** What about the “Growth Rate” value [3, 13] of the same molecule?
**A.** -1

**Q.** What does the source list for `CN(C)C(=O)N1CC[C@H](NC2=Nc3cc(F)ccc3N(CC(F)F)c3ccc(Cl)cc32)C1`?
**A.** Growth Rate [1, 13]: -0.03; Growth Rate [1, 4]: -0.43; Growth Rate [1, 5]: 0.6; Growth Rate [1, 7]: 0.62; Growth Rate [1, 8]: 0.82; Growth Rate [1, 9]: 0.32; Growth Rate [1, 10]: 0.81; Growth Rate [2, 13]: 0.7; Growth Rate [2, 4]: 0.94; Growth Rate [2, 12]: 0.35; Growth Rate [2, 5]: 0.82; Growth Rate [2, 6]: 0.77; Growth Rate [2, 7]: 0.89; Growth Rate [2, 8]: 0.79; Growth Rate [2, 9]: 0.83; Growth Rate [2, 10]: 0.88; Growth Rate [3, 6]: 0.92; Growth Rate [3, 8]: 0.92

**Q.** `CC(C)c1cc(-c2ccc(F)c3ccccc23)nc(N)n1` was tested. Which “Growth Rate” value [1, 11] did it give?
**A.** -0.03

**Q.** What about the “Growth Rate” value [1, 4] of the same molecule?
**A.** 0.51

**Q.** And the “Growth Rate” value [1, 5]?
**A.** 0.58

**Q.** And the “Growth Rate” value [1, 7]?
**A.** 0.4

**Q.** And the “Growth Rate” value [1, 9]?
**A.** 0.62

**Q.** And the “Growth Rate” value [2, 11]?
**A.** 0.46

**Q.** What about the “Growth Rate” value [2, 13] of the same molecule?
**A.** 0.76

**Q.** And the “Growth Rate” value [2, 12]?
**A.** 0.72

**Q.** What about the “Growth Rate” value [3, 13] of the same molecule?
**A.** -0.96

**Q.** And the “Growth Rate” value [3, 4]?
**A.** 0.62

**Q.** What about the “Growth Rate” value [3, 12] of the same molecule?
**A.** 0.83

**Q.** And the “Growth Rate” value [3, 5]?
**A.** 0.81

**Q.** And the “Growth Rate” value [3, 7]?
**A.** 0.86

**Q.** What about the “Growth Rate” value [3, 8] of the same molecule?
**A.** 0.79

**Q.** And the “Growth Rate” value [3, 9]?
**A.** 0.73

**Q.** And the “Growth Rate” value [3, 10]?
**A.** 0.89

**Q.** Which “Growth Rate” value [1, 13] does the source give for `Cc1cc(CN)cc(C)c1-c1ncn(C)c1-c1ccnc2cc(F)ccc12` here?
**A.** 0.5

**Q.** What about the “Growth Rate” value [1, 4] of the same molecule?
**A.** 0.31

**Q.** And the “Growth Rate” value [1, 5]?
**A.** 0.5

**Q.** And the “Growth Rate” value [1, 6]?
**A.** 0.83

**Q.** And the “Growth Rate” value [1, 7]?
**A.** 0.18

**Q.** And the “Growth Rate” value [1, 8]?
**A.** 0.64

**Q.** And the “Growth Rate” value [1, 9]?
**A.** 0.09

**Q.** What about the “Growth Rate” value [1, 10] of the same molecule?
**A.** 0.58

**Q.** What about the “Growth Rate” value [2, 13] of the same molecule?
**A.** 0.31

**Q.** What about the “Growth Rate” value [2, 4] of the same molecule?
**A.** 0.86

**Q.** What about the “Growth Rate” value [2, 12] of the same molecule?
**A.** 0.7

**Q.** What about the “Growth Rate” value [2, 5] of the same molecule?
**A.** 0.93

**Q.** And the “Growth Rate” value [2, 6]?
**A.** 0.96

**Q.** What about the “Growth Rate” value [2, 7] of the same molecule?
**A.** 0.79

**Q.** And the “Growth Rate” value [2, 8]?
**A.** 0.92

**Q.** What about the “Growth Rate” value [2, 9] of the same molecule?
**A.** 0.87

**Q.** What about the “Growth Rate” value [2, 10] of the same molecule?
**A.** 0.92

**Q.** And the “Growth Rate” value [3, 11]?
**A.** -0.16

**Q.** What about the “Growth Rate” value [3, 13] of the same molecule?
**A.** -0.67

**Q.** What about the “Growth Rate” value [3, 4] of the same molecule?
**A.** 0.54

**Q.** What about the “Growth Rate” value [3, 12] of the same molecule?
**A.** 0.18

**Q.** And the “Growth Rate” value [3, 5]?
**A.** 0.64

**Q.** What about the “Growth Rate” value [3, 6] of the same molecule?
**A.** 0.55

**Q.** And the “Growth Rate” value [3, 7]?
**A.** 0.92

**Q.** And the “Growth Rate” value [3, 8]?
**A.** 0.73

**Q.** What about the “Growth Rate” value [3, 9] of the same molecule?
**A.** 0.79

**Q.** Which results are given for `Cc1cc(O)c(-c2ccc([C@@H](C)CN(C)C)cc2)c2c1[nH]c(=O)c1sccc12`?
**A.** Growth Rate [1, 4]: -0.87; Growth Rate [1, 12]: -0.66; Growth Rate [1, 5]: -0.63; Growth Rate [1, 6]: -0.4; Growth Rate [1, 7]: -0.6; Growth Rate [1, 8]: -0.3; Growth Rate [1, 9]: -0.36; Growth Rate [1, 10]: -0.25; Growth Rate [2, 4]: -0.8; Growth Rate [2, 12]: -0.77; Growth Rate [2, 5]: -0.64; Growth Rate [2, 6]: -0.63; Growth Rate [2, 7]: -0.48; Growth Rate [2, 8]: -0.52; Growth Rate [2, 9]: -0.37; Growth Rate [2, 10]: -0.4; Growth Rate [3, 11]: -0.17; Growth Rate [3, 13]: 1; Growth Rate [3, 4]: 0.74; Growth Rate [3, 12]: 0.66; Growth Rate [3, 5]: 0.65; Growth Rate [3, 6]: 0.31; Growth Rate [3, 7]: 0.13; Growth Rate [3, 8]: 0.18; Growth Rate [3, 9]: 0.16; Growth Rate [3, 10]: 0.09
